# Experiments:
# [1] = tested on: all other known Toll-like Receptors; test: Selectivity for TLR7 over other Toll-like Receptors
# [2] = target: T1, TLR7 receptor (Homo sapiens, UniProt Q9NYK1); test: PBL/HCV replicon bioassay; assay type: cell-based; details: concentration applied to PBL (24 h) giving 50% reduction of HCV replicon levels (luciferase) after transfer of PBL culture medium to Huh-7 replicon cells (48 h)
# T1 construct: PBL contain as a subpopulation plasmacytoid dendritic cells which are the natural interferon producing cells; endogenous in cells; host or cells: peripheral blood lymphocytes (PBL), containing plasmacytoid dendritic cells
# T1 sequence (Q9NYK1 27-1049): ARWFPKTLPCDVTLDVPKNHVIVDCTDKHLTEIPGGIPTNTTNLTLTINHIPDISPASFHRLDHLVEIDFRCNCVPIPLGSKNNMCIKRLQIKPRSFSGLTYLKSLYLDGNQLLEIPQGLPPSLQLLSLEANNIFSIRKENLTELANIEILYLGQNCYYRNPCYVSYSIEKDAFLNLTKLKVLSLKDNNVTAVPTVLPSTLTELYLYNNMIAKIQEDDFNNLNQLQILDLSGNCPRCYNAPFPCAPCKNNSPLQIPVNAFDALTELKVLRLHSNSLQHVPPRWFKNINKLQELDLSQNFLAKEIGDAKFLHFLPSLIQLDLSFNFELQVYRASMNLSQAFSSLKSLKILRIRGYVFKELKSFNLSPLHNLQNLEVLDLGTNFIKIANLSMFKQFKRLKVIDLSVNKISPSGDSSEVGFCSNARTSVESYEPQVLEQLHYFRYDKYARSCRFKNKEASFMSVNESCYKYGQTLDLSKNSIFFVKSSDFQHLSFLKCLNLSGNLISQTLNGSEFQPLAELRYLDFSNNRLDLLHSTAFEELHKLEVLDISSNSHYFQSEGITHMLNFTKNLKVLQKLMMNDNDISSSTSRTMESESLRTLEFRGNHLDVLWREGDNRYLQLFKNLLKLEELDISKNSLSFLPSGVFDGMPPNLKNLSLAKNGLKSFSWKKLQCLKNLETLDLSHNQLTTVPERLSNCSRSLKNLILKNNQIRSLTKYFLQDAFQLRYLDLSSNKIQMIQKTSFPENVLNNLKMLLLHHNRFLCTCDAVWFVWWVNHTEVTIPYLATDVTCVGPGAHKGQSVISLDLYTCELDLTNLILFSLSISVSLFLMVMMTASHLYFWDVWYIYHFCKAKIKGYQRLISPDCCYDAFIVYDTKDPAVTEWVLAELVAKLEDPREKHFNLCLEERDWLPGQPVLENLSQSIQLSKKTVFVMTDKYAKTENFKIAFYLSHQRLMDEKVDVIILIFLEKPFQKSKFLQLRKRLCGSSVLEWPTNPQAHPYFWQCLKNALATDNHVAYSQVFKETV
# Experimental: PBL contain as a subpopulation plasmacytoid dendritic cells which are the natural interferon producing cells during an infection and as such are an excellent model in which to profile interferon inducers. As an extremly sensitive antiviral bioassay, supernatant taken from PBL is assayed for antiviral activity in the HCV replicon system.
# The HCV replicon (Huh-5-2[I389luc-ubi-neo-NS3-3′/ET]) is an in vitro model of HCV replication in which the luciferase reporter is incorporated into HCV sequences and stably maintained in the human hepatoma cell line Huh-7. The firefly luciferase reporter is expressed as a luciferase-ubiquitin-neomycin phosphotransferase fusion protein which is cleaved by host proteases to release luciferase. The replicon also contains an internal EMCV IRES, which drives translation of HCV NS3-5B polyprotein, which harbour cell culture adapted mutations to permit high cloning efficiency. […] Firefly luciferase activity is detected using a Bright-Glo™ Luciferase Assay System manufactured by Promega.
# An initial 3 fold serial dilution series of compounds in 100% DMSO is prepared from stocks. The dilution series is then further diluted 100 fold with complete RPMI-FCS. The final concentration of DMSO in the assay is thus 0.1% and that of the test compound is 1/1000 in the 100% DMSO dilution series. PBL are prepared seeded at 5×10^5/well/90 μl into the previously prepared compound containing assay plates (96 well clear bottomed TC grade) and incubated for 24 h.
# LucUbiNeo HCV replicon cells are seeded at 10^4/well/90 μl. These are incubated for 24 h. After 24 h, 10 μl of medium is transferred from the PBL assay plates to the HCV replicon plates and incubated for a further 48 h.
# [3] = tested on: MEK, CDK1, CDK2, JNK, MSK, MSK-1, SGK, AMPK, MLCK, CHK-2, PDE3, PDE4 and PDE5; test: Selectivity for TLR7 over kinases and phosphodiesterase enzymes; assay type: biochemical
# [4] = tested on: MAP (mitogen-activated protein kinase); test: Selectivity for TLR7 over MAP; assay type: biochemical
# [5] = tested on: HCV replicon containing cells; test: Direct response of HCV replicon containing cells to TLR agonists; assay type: cell-based, human; details: applied directly to replicon cells, without PBL conditioned medium
EC50 [2],Structure (SMILES),other results
933 nM,"Nc1nc(C2CC2)cc2c1[nH]c(=O)n2Cc1ccccc1 [Example 1, 4-Amino-1-benzyl-6-cyclopropyl-1,3-dihydro-imidazo[4,5-c]pyridin-2-one]","selectivity for the TLR7 receptor over all other known Toll-like Receptors [1]: selective; selectivity for the TLR7 receptor over MEK, CDK1, CDK2, JNK, MSK, MSK-1, SGK, AMPK, MLCK, CHK-2, PDE3, PDE4 and PDE5 [3]: selective"
1540 nM,"Cc1cc2c([nH]c(=O)n2Cc2ccccc2)c(N)n1 [Example 2, 4-Amino-1-benzyl-6-methyl-1,3-dihydro-imidazo[4,5-c]pyridin-2-one]","selectivity for the TLR7 receptor over all other known Toll-like Receptors [1]: selective; selectivity for the TLR7 receptor over MEK, CDK1, CDK2, JNK, MSK, MSK-1, SGK, AMPK, MLCK, CHK-2, PDE3, PDE4 and PDE5 [3]: selective"
266 nM,"Cc1nc(N)c2[nH]c(=O)n(Cc3ccccc3)c2c1C [Example 3, 1-Benzyl-4-amino-6,7-dimethyl-1,3-dihydro-imidazo[4,5-c]Pyridin-2-one]",–
497 nM,"COC(=O)c1cc2c([nH]c(=O)n2Cc2ccccc2)c(N)n1 [Example 4, 4-Amino-1-benzyl-2-oxo-2,3-dihydro-1H-imidazo[4,5-c]pyridine-6-carboxylic acid methyl ester]",–
240 nM,"Nc1nc(-c2ncco2)cc2c1[nH]c(=O)n2Cc1ccccc1 [Example 12, 4-Amino-1-benzyl-6-oxazol-2-yl-1,3-dihydro-imidazo[4,5-c]pyridin-2-one]","selectivity for the TLR7 receptor over all other known Toll-like Receptors [1]: selective; selectivity for the TLR7 receptor over MAP (mitogen-activated protein kinase) [4]: selective; selectivity for the TLR7 receptor over MEK, CDK1, CDK2, JNK, MSK, MSK-1, SGK, AMPK, MLCK, CHK-2, PDE3, PDE4 and PDE5 [3]: selective"
955 nM,"COCCOc1cc2c([nH]c(=O)n2Cc2ccccc2)c(N)n1 [Example 17, 4-Amino-1-benzyl-6-(2-methoxy-ethoxy)-1,3-dihydro-imidazo[4,5-c]pyridin-2-one]",–
700 nM,"CCc1coc(-c2cc3c([nH]c(=O)n3Cc3ccc(C)nc3)c(N)n2)n1 [Example 20, 4-Amino-6-(4-ethyl-oxazol-2-yl)-1-(6-methyl-pyridin-3-ylmethyl)-1,3-dihydro-imidazo[4,5-c]pyridin-2-one]",–
215 nM,"Nc1nc(-c2ncc[nH]2)cc2c1[nH]c(=O)n2Cc1ccccc1 [Example 21, 4-Amino-1-benzyl-6-(1H-imidazol-2-yl)-1,3-dihydro-imidazo[4,5-c]pyridin-2-one]",–
450 nM,"Nc1nc(-c2ccccc2F)cc2c1[nH]c(=O)n2Cc1ccccc1 [Example 22, 4-Amino-1-benzyl-6-(2-fluoro-phenyl)-1,3-dihydro-imidazo[4,5-c]pyridin-2-one]",–
1080 nM,CCCc1cc2c([nH]c(=O)n2Cc2ccccc2)c(N)n1 [Example 23],–
1600 nM,CC(C)c1cc2c([nH]c(=O)n2Cc2ccccc2)c(N)n1 [Example 24],–
1000 nM,Cc1cc2c([nH]c(=O)n2Cc2cccc(C(F)(F)F)c2)c(N)n1 [Example 25],–
453 nM,Cc1cc2c([nH]c(=O)n2Cc2cccc(F)c2)c(N)n1 [Example 27],–
3260 nM,Nc1nc2c(c3c1[nH]c(=O)n3Cc1ccccc1)CCC2 [Example 31],–
1710 nM,Nc1nc(-c2ccccn2)cc2c1[nH]c(=O)n2Cc1ccccc1 [Example 32],–
1300 nM,COCCNCc1cc2c([nH]c(=O)n2Cc2ccccc2)c(N)n1 [Example 34],–
368 nM,CC(=O)c1cc2c([nH]c(=O)n2Cc2ccccc2)c(N)n1 [Example 36],–

EC50 [2],Structure (SMILES),other results
786 nM,CCc1cc2c([nH]c(=O)n2Cc2ccccc2)c(N)n1 [Example 37],–
848 nM,Nc1nc(C(F)F)cc2c1[nH]c(=O)n2Cc1ccccc1 [Example 38],–
2200 nM,N#Cc1cc2c([nH]c(=O)n2Cc2ccccc2)c(N)n1 [Example 39],–
427 nM,COCc1cc2c([nH]c(=O)n2Cc2ccccc2)c(N)n1 [Example 40],–
2170 nM,COCCNc1cc2c([nH]c(=O)n2Cc2ccccc2)c(N)n1 [Example 49],–
1970 nM,Nc1nccc2c1[nH]c(=O)n2Cc1ccccc1 [Example 50],–
302 nM,Nc1nc(C(F)(F)F)cc2c1[nH]c(=O)n2Cc1ccc(F)cc1 [Example 54],–
2000 nM,COCCn1c(=O)[nH]c2c(N)nc(C(F)(F)F)cc21 [Example 55],–
445 nM,Nc1nc(C(F)(F)F)cc2c1[nH]c(=O)n2Cc1ccc(Cl)nc1 [Example 60],–
1680 nM,Cc1nc(N)c2[nH]c(=O)n(Cc3ccc(F)cc3)c2c1C [Example 61],–
656 nM,Nc1nc(C(F)(F)F)cc2c1[nH]c(=O)n2Cc1ccc(Br)cc1 [Example 70],–
100 nM,Cc1ccc(Cn2c(=O)[nH]c3c(N)nc(-c4cnco4)cc32)cn1 [Example 78],–
127 nM,Cc1ccc(Cn2c(=O)[nH]c3c(N)nc(-c4ncno4)cc32)cn1 [Example 82],–
470 nM,Nc1nc(-n2cccn2)cc2c1[nH]c(=O)n2Cc1ccccc1 [Example 83],–
550 nM,Cc1cnn(-c2cc3c([nH]c(=O)n3Cc3ccccc3)c(N)n2)c1 [Example 86],–
–,CC(C)Cn1cnc2c(N)nc3ccccc3c21 [Imiquimod],direct response of HCV replicon containing cells to the TLR agonist [5]: do not respond directly
